The record followed here is ChEMBL document CHEMBL3832064, “DailyMed|setid=5eda246b-ac51-46e7-b473-35937f84ed05 | GLIMEPIRIDE - glimepiride tablet|Perrigo New York Inc”.

What all share (format): ADME, organism-based
Data set [1] is filed under the species Homo sapiens. Description: (§1) Evalaution of pharmacokinetic parameters for Glimepiride following multiple doses of Glimepiride […] to healthy subjects and to patients with type 2 diabetes. Also noted: dose 4 mg, dose 8 mg, route oral. Conditions: in vivo, po, dosed compound id 27, dosed compound name GLIMEPIRIDE, regimen Multiple dose, study dosing duration 10 days, tissue Plasma.

Data set [2] is described as follows: as §1. Particulars: human, in vivo, dosed compound id 27, dosed compound name GLIMEPIRIDE, regimen Multiple dose, study dosing duration 10 days, tissue Plasma. Also noted: dose 4 mg, dose 8 mg, route oral.
Data set [3] concerns Homo sapiens. Briefly: (§2) Evalaution of pharmacokinetic parameters for Glimepiride following single oral […] of Glimepiride tablets […] to healthy subjects and to patients with type 2 diabetes. Also noted: dose 4 mg, dose 1 mg, dose 2 mg, dose 8 mg, route oral. Particulars: in vivo, po, dosed compound id 27, dosed compound name GLIMEPIRIDE, regimen Single dose, tissue Plasma.

Data set [4] in a line: as §2. Also noted: dose 4 mg, dose 1 mg, dose 2 mg, dose 8 mg, route oral. Particulars: human, in vivo, dosed compound id 27, dosed compound name GLIMEPIRIDE, regimen Single dose, tissue Plasma.
The nature of data set [5]: Pharmacokinetic parameters evaluated following intravenous […] of Glimepiride […] to normal subjects. Particulars: human, in vivo, dosed compound id 27, dosed compound name GLIMEPIRIDE, tissue Plasma.
The mark [6] stands for this setting: dose 1-8 mg, study dosing duration 1 day.

Broadly, the Cmax is the maximum level reached in the sampled fluid or tissue. A word on the CL/F: it is clearance divided by bioavailability, as obtained after extravascular dosing. As usually defined, the Tmax is the time from dosing to the highest level. The term Vd/F denotes the apparent distribution volume after extravascular dosing. For orientation: half-life means the time needed for the level to fall by half in the phase considered. Usually AUC stands for the area under the concentration-time curve, a measure of exposure. For orientation: Vd means a proportionality between amount in the body and measured concentration, not a real space. The clearance is a measure of how efficiently the substance is removed, as volume per time.

Molecules are shown by their SMILES. Where “and” joins values, the source holds several entries; their conditions need not be identical. Identical values can stand only once.

As to `CCC1=C(C)CN(C(=O)NCCc2ccc(S(=O)(=O)NC(=O)N[C@H]3CC[C@H](C)CC3)cc2)C1=O` [GLIMEPIRIDE], the Cmax in data set [1] is 309 ng/mL; in data set [2] (po), 578 ng/mL; in data set [3] (gender male and female), 102.4 ng/mL and 103.2 ng/mL; in data set [3] (study dosing duration 1 day) it was 352 ng/mL and 591 ng/mL. Besides, the CL/F was found to be 52.7 mL/min in data set [2] (dose 1-8 mg, route oral); 48.5 mL/min in data set [3] (setting [6]); 52.1 mL/min in data set [4] (dose 1-8 mg, route oral). Moreover, the Tmax in data set [2] (dose 1-8 mg, route oral) was 2.8 h; in data set [3] (setting [6]) it was 2.5 h; in data set [4] (dose 1-8 mg, route oral), 2.4 h. The Vd/F in data set [2] (dose 1-8 mg, route oral) stood at 37.1 L; in data set [3] (setting [6]), 19.8 L; in data set [4] (dose 1-8 mg, route oral) it was 21.8 L. In addition, the half-life in data set [2] (dose 1-8 mg, route oral) is 9.2 h; in data set [4] (dose 1 mg, gender male and female, route oral), 3.1 h. Besides, the t1/2 was 5.3 h in data set [3] (dose 1 mg, gender male and female); 5 h in data set [3] (setting [6]). Besides, the “AUC(0-last)” value in data set [3] (gender male and female) was found to be 315.2 ng·h/mL. Moreover, the AUC in data set [4] (po, gender male and female, read-out: AUC(0-last)) worked out at 339 ng·h/mL. Also, the Vd in data set [5] came out at 8.8 L. In addition, the clearance in data set [5] is 47.8 mL/min.
